Measurements taken from patent US6410587B1, “Compounds and therapies for the prevention of vascular and non-vascular pathologies” (NeoRx Corporation, priority 1997, dated 2002).
Marks after values point to notes of the source that are not given here.

How the values were obtained:
[1] = system: GR; experiment: MMTV LTR-CAT reporter in stably transfected SMCs; assay type: cell-based
From the text: Because ER. interacts with NFkB transcription factor complexes in a similar manner to that for GR, agents which modulate ER/NFkB interaction should modulate the inflammatory response without activating GR. To test this hypothesis, SMCs in DMEM+10% FCS were transfected with a vector comprising the MMTV LTR promoter coupled to the chloramphenicol acetyl transferase (CAT) gene and the neomycin resistance gene (neo). A stably transfected line was selected using geneticin. When these cells were treated with dexamethasone, expression of the CAT gene was elevated 3.7±0.7 fold. […] Thus, ER/NFkB modulators would be expected to circumvent the undesirable side-effect profile associated with direct transcriptional activation by GR.

[2] = system: TGF-beta; experiment: TGF-beta production by human VSMCs in culture; assay type: cell-based; details: cultured VSMCs
Procedure: The amount of TGF-beta present in medium conditioned on VSMCs in the presence and absence of aspirin was measured by ELISA.
The ED50 for TGF-beta production of the complex (Cu Aspirinate) was determined in cultured rat and human VSMCs.

[3] = system: TGF-beta; experiment: TMX 40 mg/day for 10 days in TVD patients: plasma TGF-beta; assay type: in vivo, human
Procedure: Active plus acid-activatable latent (a+1) TGF-beta levels were assayed in platelet-poor plasma using seven different assay methods. There has been debate in the literature regarding the most appropriate way to measure (a+1) TGF-beta, so to avoid difficulties specific to any particular measurement method all the available methods which have been described in the literature were used. The seven methods are:
(A) A sandwich ELISA using BDA19 and BDA5 (R&D Systems) antibodies with no activation step required.
(B) The Quantikine TGF-beta1 ELISA kit (R&D Systems) using acid/urea as the activation buffer in accordance with the manufacturer's instructions
(C) The Quantikine TGF-beta1 ELISA kit (R&D Systems) using acid alone as the activation buffer
(D) The BioTrak TGF-beta1 ELISA kit (Amersham International) using acid/urea as the activation buffer
(E) The BioTrak TGF-beta1 ELISA kit (Amersham International) using acid alone as the activation buffer in accordance with the manufacturers instructions
(F) The TGF-beta1 ELISA kit (Genzyme Diagnostics) using acid/urea as the activation buffer in accordance with the manufacturer's instructions
(G) The TGF-beta1 ELISA kit Promega Corporation) using acid alone as the activation buffer in accordance with the manufacturer's instructions
Replicate aliquots of plasma taken from the same individuals at the same time were assayed by all seven methods.
The partitioning of TGF-beta between the lipoproteins and plasma proteins was analyzed by separating the lipoprotein fraction (d<[…]) from the plasma proteins by density ultracentrifugation as described hereinabove. TGF-beta levels were assayed in both fractions using the Quantikine ELISA kit, following release and activation of TGF-beta with acetic acid and urea in accordance with the manufacturer's instructions. None of the three TGF-beta ELISAs used here detected TGF-beta in the lipoprotein fraction without prior extraction/activation with acetic acid/urea.

[4] = Serum lipid and lipoprotein profile of apoE knockout mice; assay type: in vivo, mouse; details: apo(E)−/− mouse
Procedure: The effect of each treatment on the lipid profile of each group of mice was determined by measuring the cholesterol and triglyceride. Blood from a terminal bleed was collected in a polypropylene tube, allowed to clot at room temperature for 2 hours and then spun (1,000×g; 5 minutes). The serum supernatant was aliquoted and stored at −20° C. until assayed. Total cholesterol and total triglycerides were determined for each mouse using the cholesterol oxidase and glycerol kinase UV end-point enzymatic methods respectively (Sigma Diagnostics).

[5] = system: NFkB; experiment: NFkB translocation (p65 immunostaining) and kB-luciferase reporter activity in human SMCs; assay type: cell-based
From the text: In cells which had been transfected with a reporter construct which has three consensus kB DNA elements fused to the luciferase gene, the amount of light which was produced when the cell lysate was exposed to luciferin and ATP was proportional to NFkB activity.

[6] = cited from earlier work; for long-term carcinogenicity: rats; for covalent (hepatic) DNA adducts: rat, in vivo
[7] = TMX 40 mg/day for 10 days in TVD patients: plasma lipids, Lp(a), PAI-1
From the text: Patients with triple vessel disease (TVD) were defined as individuals having at least 50% stenosis of all three coronary arteries by angiography, which was confirmed by two independent observers. All had stable angina, with no myocardial infarction in the previous three months. Patients with unstable angina, poor left ventricular function, ventricular hypertrophy or diabetes were excluded.
Blood samples were taken and plasma prepared before and during the treatment period, and these samples were analyzed for TGF-beta, Lp(a), PAI-1 and lipoprotein profiles. Patients were asked to fast overnight prior to samples of blood being drawn between 9 am. and 10 a.m. the following morning. Blood samples were drawn by venepuncture of the antecubital vein with no tourniquet applied using a 21 gauge butterfly needle. Half the blood was allowed to clot for 2 hours at room temperature in polypropylene tubes. The clot was spun down (1,500×g; 15 minutes) and aliquots of the serum was stored at −100° C. The remaining blood was dispensed into Diatube H tubes (Diagnostica Stago) and cooled on ice for 15 minutes. Blood cells and platelets were spun down (6,000×g; 30 minutes) and the middle third of the supernatant was taken, carefully avoiding disturbing the pellet. This platelet-poor plasma was stored in aliquots at −100° C. until assayed.
Total plasma triglyceride, total plasma cholesterol, HDL-cholesterol, LDL-cholesterol and VLDL-cholesterol were routinely assayed in all patients.

[8] = system: apoE knockout mice; experiment: Lipid lesion development in aortic sinus of apoE knockout mice (Oil Red O); details: mouse aorta
Procedure: To determine the efficacy of combination therapy, and to provide evidence for synergism between aspirin and fish oil, 8-week-old female apoE knockout mice were fed aspirin or fish oil, or both, to assess the cardioprotective effects of modulating different components of the TGF-beta pathway.
Group A mice (n=10) were sacrificed at day 0. Group B mice (n=10) were fed normal chow. […] Group D mice (n=10) were fed chow containing 33 mg/kg/day fish oil (200 μg Pulse cod liver oil/g food, Seven Seas Ltd., which contains 0.9 g eicosapentaenoic acid (EPA), and 0.3 g docosahexaenoic acid (DHA)) and 3 mg/kg/day aspirin dissolved in water. Group E mice (n=10) were fed chow containing 33 mg/kg/day fish oil. Group F mice (n=10) were fed chow containing Zocor (simvastatin; Zocor tablets, Merck, Sharpe & Dohme) at 400 μg/kg/day (2 μg/g food).
Groups B-F were fed these regimens for 87 days. All mice were weighed daily for the first week and weekly thereafter. Food and water consumption over a 24 hour period were measured daily for the first 7 days and weekly thereafter.
After 87 days, mice in groups B-F were fasted overnight and then sacrificed. Serum, heart, lungs and aorta samples were collected at the time of sacrifice. The heart, lungs and aorta were removed from each mouse and rinsed in PBS, dabbed dry on tissue and embedded in Cryo-M-bed embedding medium (Bright Instruments, Huntington, U.K.) before snap freezing in liquid nitrogen. Frozen sections (4 μm thickness) of the aortic sinus region were prepared from the heart/lung/aorta blocks according to the sectioning strategy of Paigen et al. (Arteriosclerosis, 10, 316 (1990)). Sections on 5% gelatin-coated slides were stained for neutral lipid by the Oil Red O technique and counter-stained with fast green (Grainger et al., Nature Med., 1, 1067 (1995)).
The development of lipid-filled vascular lesions was determined by the quantitation of oil red O staining for neutral lipid deposited in the aortic sinus region. The area of lipid accumulation was measured using a calibrated microscope eye-piece, such that lipid droplets<50 μm^2 were ignored and contiguous regions of lipid staining>500 μm in area were classified as lesions.

[9] = rats; cited from earlier work
[10] = molecular target: T1, recombinant extracellular domain of the type II TGF-beta receptor (R2X) (Homo sapiens, UniProt P37173); experiment: Binding of recombinant TGF-beta to R2X (ELISA); details: lipoprotein equivalent to 3 mM total cholesterol added; maximal value
T1 construct: the recombinant extracellular domain of the type II TGF-beta receptor (R2X)
Procedure: To determine whether the TGF-beta associated with lipoprotein particles was able to bind to the type II TGF-beta signaling receptor and exert biological activity in vitro, the binding of recombinant TGF-beta to R2X was measured in the absence and presence of increasing concentrations of lipoprotein purified from the plasma of an individual with <1 ng/ml TGF-beta in plasma (individual I, Table 1). If the lipoprotein-associated fraction of TGF-beta is unavailable for binding, lipoproteins prepared from an individual with a very low plasma concentration of TGF-beta would be expected to reduce the binding of recombinant active TGF-beta to its receptors. The half maximal (ka) binding of recombinant TGF-beta to the recombinant extracellular domain of the type II TGF-beta receptor was previously determined to be 17±3 ng/ml (R2X; Grainger et al., Nature, 270, 460 (1994); Grainger et al., Clin. Chim. Acta, 235, 11 (1995)).
To measure the binding of TGF-beta to its receptor, the recombinant extracellular domain of the type II TGF-beta receptor (R2X), was coated onto ELISA plates (1 μg/well, Maxisorp plates, Gibco BRL). Wells were washed 3 times quickly in TBS and blocked with TBS containing 3% bovine serum albumin (BSA, fatty-acid free; Sigma) for 30 minutes. […] The amount of bound TGF-beta was detected with antibody BDA5 (R&D Systems) as previously described by Grainger et al., Clin. Chim. […]

[11] = system: mink lung epithelial (MvLu) cells; experiment: Inhibition of MvLu cell proliferation; assay type: cell-based
From the text: It has previously been shown that TGF-beta inhibits the proliferation of mink lung epithelial (MvLu) cells in culture. […] J. Physiol., 265, C571 (1993). […] Addition of lipoprotein purified from the plasma of individual I caused a dose-dependent increase in the ID50 of TGF-beta.

[12] = molecular target: T1, recombinant extracellular domain of the type II TGF-beta receptor (R2X); details: no lipoprotein; previously determined; cited from earlier work
[13] = TNF-alpha (20 ng/ml) and tamoxifen (5 μM) simultaneously

T1 sequence (P37173 23-166 limits assumed): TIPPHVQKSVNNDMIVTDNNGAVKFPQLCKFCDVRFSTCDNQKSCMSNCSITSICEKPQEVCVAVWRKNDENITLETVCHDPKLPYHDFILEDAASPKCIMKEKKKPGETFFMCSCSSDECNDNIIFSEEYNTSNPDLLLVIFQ

## C[C@@H]1C[C@H]2[C@@H]3CCC4=CC(=O)C=C[C@]4(C)[C@@]3(F)[C@@H](O)C[C@]2(C)[C@@]1(O)C(=O)CO [dexamethasone]
[1]
  elevation of expression of the CAT gene: 3.7±0.7 fold

## CC(=O)Oc1ccccc1C(=O)[O-].CC(=O)Oc1ccccc1C(=O)[O-].[Cu+2] [Cu aspirinate, copper II (acetyl salicylate)2]
[2]
  potency at stimulating TGF-beta relative to aspirin: almost two orders of magnitude more potent

## CC/C(=C(\c1ccccc1)c1ccc(OCCN(C)C)cc1)c1ccccc1 [TMX, trans-2-[4-(1,2-diphenyl-1-butenyl)phenoxy]-N,N-dimethylethylamine]
[3]; Day 10, BDA19/BDA5 sandwich ELISA
  Plasma (a + 1) TGF-β, Method (A): 7.7 ± 1.5 ng/mL
[3]; Day 10, BioTrak, acid alone
  Plasma (a + 1) TGF-β, Method (E): 2.3 ± 0.1 ng/mL
[3]; Day 10, BioTrak, acid/urea
  Plasma (a + 1) TGF-β, Method (D): 2.4 ± 0.1 ng/mL
[3]; Day 10, Genzyme, acid/urea
  Plasma (a + 1) TGF-β, Method (F): 5.2 ± 0.3 ng/mL
[3]; Day 10, Promega, acid alone
  Plasma (a + 1) TGF-β, Method (G): 0.2 ± 0.1 ng/mL
[3]; Day 10, Quantikine, acid alone
  Plasma (a + 1) TGF-β, Method (C): 0.62 ± 0.07 ng/mL
[3]; Day 10, Quantikine, acid/urea
  Plasma (a + 1) TGF-β, Method (B): 1.2 ± 0.2 ng/mL
[3]; Day 10 vs Day 0
  change in plasma (a + 1) TGF-β, Method (A): (+24%)
  change in plasma (a + 1) TGF-β, Method (B): (+71%)
  change in plasma (a + 1) TGF-β, Method (C): (+148%)
  change in plasma (a + 1) TGF-β, Method (D): (+20%)
  change in plasma (a + 1) TGF-β, Method (E): (+29%)
  change in plasma (a + 1) TGF-β, Method (F): (+59%)
  change in plasma (a + 1) TGF-β, Method (G): (+100%)
[3]; after 10 days of TMX therapy, Quantikine ELISA
  proportion of plasma TGF-beta that is lipoprotein-associated: 25±3%
[3]; by day 10
  median increase in (a+1) TGF-beta: 59%
[4]
  lowering of VLDL: seven fold
[5]; Homo sapiens, read-out: inhibition of TNF-alpha-induced NFkB activity
  inhibition at 5 µM: 86 ± 12%
[5]; [13]
  NFkB translocated to the nucleus: less than 10%
  stimulation of NFkB activity: less than 3 fold
[5]; tamoxifen alone
  change in NFkB activity: no detectable change
[6]
  long-term carcinogenicity: liver carcinogenicity
[7]; Day 10
  HDL-cholesterol: 0.77 ± 0.04 mM
  LDL-cholesterol: 4.16 ± 0.25 mM
  Lipoprotein(a): 42.4 ± 9.5 mg/dL
  Plasma PAI-I antigen: 35.9 ± 5.4 ng/mL
  Total plasma triglycerides: 2.28 ± 0.35 mM
  VLDL-cholesterol: 0.84 ± 0.11 mM
[7]; Day 10, mean ± standard error, 15 patients
  Total plasma cholesterol: 5.95 ± 0.29 mM
[7]; after 10 days
  concentration of HDL-cholesterol, change: unchanged
  concentration of LDL-cholesterol, change: unchanged
  decrease in total plasma cholesterol below baseline: 6%
  reduction of cholesterol in the VLDL fraction below baseline: 18%
[7]; after 10 days, not statistically significant (p=0.22)
  lowering of total plasma triglyceride concentration: 18%
[7]; day 3 vs baseline
  decrease in plasma concentration of Lp(a): 27%
[7]; day 10 vs baseline
  reduction in Lp(a) concentration: 31%
[8]
  % Lesion Suppression: 99* %

## CC/C(=C(\c1ccc(I)cc1)c1ccc(OCCN2CCCC2)cc1)c1ccccc1 [idoxifene, (E)-1-[4-[2-(N-pyrrolidino)ethoxy]phenyl]-1-(4-iodophenyl)-2-phenyl-1-butene]
[6]
  covalent (hepatic) DNA adducts: absence of DNA adducts
[9]
  residual estrogenic activity compared with TMX: reduced residual estrogenic activity

## CN(C)CCOc1ccc(/C(=C(/CCCl)c2ccccc2)c2ccccc2)cc1 [Toremifene, toremifene]
[6]
  covalent (hepatic) DNA adducts: very low level
  long-term carcinogenicity: non-carcinogenic

## TNF-alpha
[5]; 20 ng/ml, 6 hours at 37° C.
  NFkB translocated to the nucleus: > 80%
[5]; 20 ng/ml, 6 hours, luciferase reporter
  increase in NFkB activity: 19 fold

## CC/C(=C(/c1ccc(I)cc1)c1ccc(OCCN(C)C)cc1)c1ccccc1 [4-iodotamoxifen]
[6]
  covalent (hepatic) DNA adducts: absence of DNA adducts

## recombinant TGF-beta: recombinant active TGF-beta1 (R&D Systems)
[10]
  apparent ka for TGF-beta binding to R2X: 42 ± 6 ng/mL
[11]; 3 mM total cholesterol lipoprotein added, maximal
  MvLu cell ID50: 0.52 ± 0.08 ng/mL
[11]; no lipoprotein, n=6
  MvLu cell ID50: 0.12 ± 0.04 ng/mL
[12]
  half maximal (ka) binding of recombinant TGF-beta to R2X: 17 ± 3 ng/mL
